Reference: patent US20080027088A1, “Imidazole-Based Hmg-Coa Reductase Inhibitors” (Warner-Lambert Company, LLC, priority 2004, published 2008)

How the values were obtained:
Format in all cases: in vivo
[1] = system: ApoE KO mice fed a Western diet; assay: Plasma total cholesterol and triglyceride, 4 weeks myriocin diet admix
Description: (§1) Animal experiments—Male C57BI/6J and ApoE KO mice on C57BI/6J background were obtained from the Jackson Laboratory (Bar Harbor, Me.) or Taconic (Germantown, N.Y.) (Plaque formation in ApoE KO mice is lipid-driven (A. S. Plump et al., Cell. 1992;71 (2):343-53)). Myriocin was mixed with Western diet containing 0.21% cholesterol and 21% fat. 8-12-week-old mice received 0.3 mg myriocin/kg/day for 12 weeks (Table 1). 10-12 week-old ApoE KO mice (n=8) were pre-fed a western diet for 2 weeks and mice received various concentrations of myriocin for 4 weeks in diet admix. Control groups consisted of ApoE KO mice fed normal chow or Western diet without myriocin, and normal chow-fed C57BI/6J mice. Body weight and chow feeding was measured every week to examine the food consumption. For the femoral artery cuff model, 8-10 week-old male ApoE KO mice were anethetized and the right femoral artery was dissected from its surroundings. A nonconstrictive polyethylene cuff (Portex, 0.40-mm inner diameter, 0.80-mm outer diameter, and 1.5-mm length) was placed looselyaround the right femoral artery.
(§2) Plasma lipids and serum amyloid A measurement—Mice were sacrificed by CO2 inhalation and blood was collected through cardiac puncture. Plasma concentrations of total cholesterol and triglyceride were determined enzymatically on a Cobas Mira Plus auto-analyzer using Cholesterol R1 and Triglycerides Reagent methods, respectively (Roche Diagnostics, Indiana, USA). Colormetric changes were measured at 500 nm. Lipoproteins were separated from mouse plasma by fast-protein liquid chromatography utilizing a Superose 6HR column. Cholesterol distribution among lipoproteins was determined by in-line post column analysis (K. A. Kieft, T. M. Bocan and B. R. Krause, J. Lipid Res. 1991; 32:859-66). Serum Amyloid A (SAA) protein in plasma was measured by ELISA according to the manufacturer's instructions (Biosource).
FIG. 3. Plasma Cholesterol and Triglycerides in ApoE KO Mice Fed a Western Diet. After 4 weeks of diet admix myriocin treatment, mice were sacrificed and plasma was isolated. Plasma concentrations of total cholesterol (A) and triglyceride (B) were determined enzymatically on a Cobas Mira Plus auto-analyzer using Cholesterol R1 and Triglycerides Reagent methods, respectively. Colormetric changes were measured at 500 nm. The values reported are mean±SEM (n=8, *P<0.01).

[2] = system: ApoE KO mice fed a Western diet; assay: Plasma serum amyloid A by ELISA, cuffed femoral artery study; conditions: 4 weeks
Description: as §2
FIG. 5. Lesion Development in the Cuffed Femoral Artery of ApoE KO mice Fed a Western Diet. Mice were anesthetized and the right femoral artery was dissected from its surroundings. A nonconstrictive polyethylene cuff (Portex, 0.40-mm inner diameter, 0.80-mm outer diameter, and 1.5-mm length) was placed looselyaround the right femoral artery. […] Atherosclerotic lesion (black bar) and macrophage size (gray bar) in the femoral artery were quantified by using Image Pro Plus software (FIG. 5A). Plasma serum amyloid A levels were determined by colormetric ELISA (FIG. 5B). […]

[3] = system: ApoE KO mice fed a Western diet; assay: Lesion development in the cuffed femoral artery, 4 weeks
Description: as §1
For histological analysis, the mice were perfused and fixed in Zinc-Tris fixative. Paraffin embedded sections were stained with Masson's Trichrome. Intimal macrophages were immunohistochemically stained using MAC-2 antibody (clone M3/38 from Cedarlane Laboratories Limited) counterstained with Verhoeff elastic stain. T-lymphocytes were immunohistochemically stained with rat CD3 antibody (clone CD3-12, Serotec). Lesion thickness and area occupied by macrophages were determined using Image Pro Plus software.
FIG. 5. Lesion Development in the Cuffed Femoral Artery of ApoE KO mice Fed a Western Diet. Mice were anesthetized and the right femoral artery was dissected from its surroundings. […] Atherosclerotic lesion (black bar) and macrophage size (gray bar) in the femoral artery were quantified by using Image Pro Plus software (FIG. 5A). Plasma serum amyloid A levels were determined by colormetric ELISA (FIG. 5B). […]

[4] = system: LCB1 and LCB2 mRNA; assay: SPT gene expression (LCB1, LCB2 mRNA) in liver by RT-PCR; conditions: 0.3 mg/kg/day diet admix, 12 weeks, Western diet-fed ApoE KO mice
Description: SPT expression and activity—Total RNA was isolated from liver and aorta using Trizol (Invitrogen, Calif.). LCB1 and LCB2 mRNA levels were measured by real-time (RT) polymerase chain reaction (PCR) on ABI Prism 7900HT Sequence Detection System (Applied Biosystems, Foster City, Calif.). The following primers and probe sets were utilized: LCB1, forward primer, 5′-CCGCTCCTTCGTGGTTGA-3′: reverse primer, 5′-[…]-3′: probe, 5′FAM-[…]-3′; LCB2, forward primer, 5′-[…]-3′, reverse primer, 5′-CCTCAGGATCCAGGCCM-3′, probe, 5′FAM-[…]-3′. The optimum number of cycles was set for each gene product with uniform amplification. Each mRNA level was expressed as a ratio to 18s ribosomal RND or as a ratio to GAPDH RNA.
FIGS. 1-A, 1-B, 1-C, 1-D and 1-E. SPT gene expression and enzyme activity. Mice were treated with 0.3 mg/kg/day myriocin for 12 weeks by mixing with Western diet chow. Liver was isolated and total mRNA and cell-free homogenate were prepared. SPT mRNA expression was quantified by quantitative RT-PCR. Expression was described as a ratio of LCB1 (A) or LCB2 (B) mRNA to 18s RNA or to rodent GAPDH RNA (n=5, P>0.05). SPT activity of cell-free homogenate (C) was measured with ^14C-labeled Serine and palmitoyl-coenzyme A as substrates and analyzed by TLC. Relative amounts of 3-ketosphinganine were determined by densitometry scanning. The values reported are mean±SEM (n=3, *P<0.05).

[5] = 0.3 mg/kg/day, vs no-myriocin control

CCCCCCC(=O)CCCCCC/C=C/C[C@@H](O)[C@H](O)[C@@](N)(CO)C(=O)O [myriocin]
effect on plasma TG levels ([1]; 0.1 mg/kg/day): no effect
plasma cholesterol reduction ([1]; 0.1 mg/kg/day, vs no-myriocin control): 46%
plasma TG levels lowered ([1]; 0.3 mg/kg/day): 44%
plasma cholesterol decrease (maximum) [1, 5]: 76%
plasma serum amyloid A lowered [2]: 84%
reduction of development of atherosclerotic lesions, cuffed femoral artery ([3]; 0.1 mg/kg/day): 43%
reduction of macrophage accumulation, cuffed femoral artery ([3]; 0.1 mg/kg/day): 47%
lesion area reduced, cuffed femoral artery [3, 5]: more than 98%
effect on expression of LCB1 and LCB2 mRNA in the liver [4]: no effect
